Measurements published in patent US8163756B2 (priority 2004, dated 2012).

Key:
Assay type in all cases: biochemical
Abl kinase = target: T1, Abl kinase (Homo sapiens, UniProt P00519); experiment: Abl kinase assay A1 (pyruvate kinase/lactate dehydrogenase coupled, spectrophotometric); details: Method A1; read-out: Abl Data (IC50)
T1 sequence (P00519 229-512): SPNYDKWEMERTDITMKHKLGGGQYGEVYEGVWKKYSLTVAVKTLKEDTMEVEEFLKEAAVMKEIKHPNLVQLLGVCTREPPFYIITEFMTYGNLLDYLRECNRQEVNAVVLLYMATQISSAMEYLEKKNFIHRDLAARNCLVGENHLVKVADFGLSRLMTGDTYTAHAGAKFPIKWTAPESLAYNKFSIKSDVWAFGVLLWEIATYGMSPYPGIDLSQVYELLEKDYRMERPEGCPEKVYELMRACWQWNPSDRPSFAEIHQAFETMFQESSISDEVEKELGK
Experimental: IC50 values were calculated from a series of percent inhibition values determined at a range of inhibitor concentrations using software routines as implemented in the GraphPad Prism software package.

B-Raf(V599E) kinase = B-Raf(V599E) kinase (Homo sapiens, UniProt P15056, V600E); experiment: B-Raf(V599E) kinase assay B1 (construct 1, MEK1 substrate, coupled spectrophotometric)
Chain of B-Raf(V599E) kinase (P15056 with tags, fused parts or gaps V600E): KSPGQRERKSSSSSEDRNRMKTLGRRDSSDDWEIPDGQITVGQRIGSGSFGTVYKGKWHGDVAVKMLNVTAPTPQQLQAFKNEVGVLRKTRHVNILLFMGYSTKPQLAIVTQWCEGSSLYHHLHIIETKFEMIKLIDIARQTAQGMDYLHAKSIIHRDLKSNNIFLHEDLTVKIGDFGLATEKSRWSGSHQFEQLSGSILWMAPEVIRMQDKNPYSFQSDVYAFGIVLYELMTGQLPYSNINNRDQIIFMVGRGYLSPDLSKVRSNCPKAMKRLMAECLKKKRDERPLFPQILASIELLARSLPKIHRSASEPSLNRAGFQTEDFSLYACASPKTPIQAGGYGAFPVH
Experimental: The test compounds were incubated with the reaction mixtureat 30° C. for 2 h. […] The reaction rate was calculated using the […] time frame. […] IC50 values were calculated from a series of percent inhibition values determined at a range of inhibitor concentrations using software routines as implemented in the GraphPad Prism software package.

[1] = target: phosphorylated p-38-alpha kinase (Homo sapiens, UniProt Q16539); experiment: P-38 alpha kinase assay P1 (coupled spectrophotometric, 2 h pre-incubation); details: method P1 (2 h pre-incubation); read-out: P-38 Data
Chain of phosphorylated p-38-alpha kinase (Q16539 1-360 isoform Q16539-2): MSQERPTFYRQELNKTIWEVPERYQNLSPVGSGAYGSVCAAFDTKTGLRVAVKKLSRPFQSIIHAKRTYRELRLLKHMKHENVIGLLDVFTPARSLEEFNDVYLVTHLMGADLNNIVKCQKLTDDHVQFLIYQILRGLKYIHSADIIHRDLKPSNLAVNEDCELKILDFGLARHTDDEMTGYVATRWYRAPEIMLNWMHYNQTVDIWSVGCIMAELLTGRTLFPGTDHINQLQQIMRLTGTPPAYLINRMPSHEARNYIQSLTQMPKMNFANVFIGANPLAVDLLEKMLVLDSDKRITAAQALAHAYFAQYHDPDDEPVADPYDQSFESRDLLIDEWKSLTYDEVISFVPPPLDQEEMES

Row | Structure (SMILES) | IC50 (Abl kinase) | IC50 (B-Raf(V599E) kinase) | IC50 [1]
1 | CC(C)(C)c1cc(NC(=O)Nc2ccc(F)cc2F)n(-c2cc(CO)c3ccccc3c2)n1 [Example 63, 1-(3-t-butyl-1-(4-(hydroxylmethyl)naphthalen-2-yl)-1H-pyrazol-5-yl)-3-(2,4-difluorophenyl)urea] | 300 nM | 4 nM | –
2 | CC(C)(C)c1cc(NC(=O)Nc2ccc(C#N)cc2)n(-c2cc(CC(N)=O)c3ccccc3c2)n1 [Example 79, 1-(1-(4-(2-amino-2-oxoethyl)naphthalen-2-yl)-3-t-butyl-1H-pyrazol-5-yl)-3-(4-cyanophenyl)urea] | 180 nM | – | –
3 | CC(C)(C)c1cc(NC(=O)Nc2ccc(Cl)cc2)n(-c2ccc3c(c2)CNCC3)n1 [Example 124, 1-[3-t-butyl-1-(1,2,3,4-tetrahydroisoquinolin-7-yl)-1H-pyrazol-5-yl]-3-(4-chloro-phenyl)urea] | 1400 nM | 173 nM | –
4 | CC(C)(C)c1cc(NC(=O)Nc2ccc(F)c(F)c2F)n(-c2cccc(CC(=O)O)c2)n1 [Example 356, 2-(3-(3-t-butyl-5-(3-(2,3,4-trifluorophenyl)-ureido)-1H-pyrazol-1-yl)phenyl)acetic acid] | – | 14 nM | 72 nM
5 | COc1cccc(-n2nc(C(C)(C)C)cc2NC(=O)Nc2cccc(C#N)c2)c1 [Example 17, 1-(3-t-butyl-1-(3-methoxyphenyl)-1H-pyrazol-5-yl)-3-(3-cyanophenyl)urea] | 370 nM | 89 nM | –
6 | CC(C)(C)c1cc(NC(=O)Nc2cc(F)ccc2F)n(-c2cc(CC(N)=O)c3ccccc3c2)n1 [Example 87, 1-(1-(4-(2-amino-2-oxoethyl)naphthalen-2-yl)-3-t-butyl-1H-pyrazol-5-yl)-3-(2,5-difluorophenyl)urea] | 73 nM | – | –
7 | CC(C)(C)c1cc(NC(=O)Nc2cccc(Cl)c2Cl)n(-c2cc(CC(N)=O)c3ccccc3c2)n1 [Example 78, 2-(3-{3-t-butyl-5-[3-(2,3-dichlorophenyl)ureido]pyrazol-1-yl}naphthalen-1-yl)acetamide] | 72 nM | 3.5 nM | –
8 | CC(C)(C)c1ncc(NC(=O)Nc2cccc(Oc3cccnc3)c2)c(-c2ccccc2)n1 [Example 281, 1-(2-t-butyl-4-phenylpyrimidin-5-yl)-3-(3-(pyridin-3-yloxy)phenyl)urea] | – | 369 nM | 5800 nM
9 | CC(C)(C)c1cc(NC(=O)Nc2cc(F)c(F)cc2F)n(-c2cc(CN)c3ccccc3c2)n1 [Example 71, 1-(1-(4-(aminomethyl)naphthalen-2-yl)-3-t-butyl-1H-pyrazol-5-yl)-3-(2,4,5-trifluorophenyl)urea] | 90 nM | 4.1 nM | –
10 | CC(C)(C)c1cc(NC(=O)Nc2ccccc2)n(-c2cc(CC(=O)O)c3ccccc3c2)n1 [Example 301, {3-[3-t-butyl-5-(3-phenylureido)pyrazol-1-yl]naphthalen-1-yl}acetic acid] | – | 10 nM | 160 nM
11 | CC(C)(C)c1cc(NC(=O)Nc2cccc(C#N)c2)n(-c2ccc3c(c2)CNCC3)n1 [Example 125, 1-(3-t-butyl-1-(1,2,3,4-tetrahydroisoquinolin-7-yl)-1H-pyrazol-5-yl)-3-(3-cyanophenyl)urea] | 180 nM | – | –
12 | CCOC(=O)c1cc(-n2nc(C(C)(C)C)cc2NC(=O)Nc2cccc(Cl)c2Cl)cc2ccccc12 [Example 58, 3-{3-t-butyl-5-[3-(2,3-dichlorophenyl)ureido]-pyrazol-1-yl}naphthalene-1-carboxylic acid ethyl ester] | 4700 nM | – | –
13 | CC(C)(C)c1cc(NC(=O)Nc2cccc(Cl)c2Cl)n(-c2cccc(CC(=O)NC[C@H](O)CO)c2)n1 [Example 36, 1-(3-t-butyl-1-(3-(2-((S)-2,3-dihydroxypropylamino)-2-oxoethyl)phenyl)-1H-pyrazol-5-yl)-3-(2,3-dichloro-phenyl)urea] | 720 nM | – | –
14 | CC(C)(C)c1cc(NC(=O)Nc2cccc(Cl)c2Cl)n(-c2cccc(CC(=O)NCC(O)CO)c2)n1 (stereo not shown) [Example 440, 1-(3-t-butyl-1-(3-(2-(2,3-dihydroxypropylamino)-2-oxoethyl)phenyl)-1H-pyrazol-5-yl)-3-(2,3-dichlorophenyl)urea] | – | 4.1 nM | 7 nM
15 | CC(C)(C)c1cc(NC(=O)Nc2cccc(Cl)c2Cl)n(-c2ccc(CC(=O)NCC(O)CO)cc2)n1 (stereo not shown) [Example 493] | – | 11 nM | 4 nM
16 | CO[C@@H]1CCN(C(=O)Cc2cccc(-n3nc(C(C)(C)C)cc3NC(=O)Nc3cccc(Cl)c3Cl)c2)C1 [Example 444, 1-(3-t-butyl-1-(3-(2-((R)-3-methoxypyrrolidin-1-yl)-2-oxoethyl)phenyl)-1H-pyrazol-5-yl)-3-(2,3-dichlorophenyl)urea] | – | 20 nM | 63 nM
17 | CC(C)(C)c1cc(NC(=O)Nc2cc(F)ccc2F)n(-c2cc(CC(=O)NC(CO)CO)c3ccccc3c2)n1 [Example 99, 1-(3-t-butyl-1-(4-(2-(1,3-dihydroxypropan-2-ylamino)-2-oxoethyl)naphthalen-2-yl)-1H-pyrazol-5-yl)-3-(2,5-difluorophenyl)urea] | 38 nM | – | –

Row | Structure (SMILES) | IC50 (Abl kinase) | IC50 (B-Raf(V599E) kinase) | IC50 [1]
18 | O=C(O)Cc1ccc(-n2nc(-c3ccccc3F)cc2NC(=O)Nc2ccc(F)c(F)c2F)cc1 [Example 388, 2-(4-(3-(2-fluorophenyl)-5-(3-(2,3,4-trifluorophenyl)ureido)-1H-pyrazol-1-yl)phenyl)acetic acid] | – | – | 91 nM
19 | O=C(Cc1cccc(-n2nc(-c3ccccc3F)cc2NC(=O)N[C@H]2CCc3ccccc32)c1)NCCO [Example 412, 1-((S)-2,3-dihydro-1H-inden-1-yl)-3-(3-(2-fluorophenyl)-1-(3-(2-(2-hydroxyethylamino)-2-oxoethyl)phenyl)-1H-pyrazol-5-yl)urea] | – | – | 41 nM
20 | NC(=O)Cc1cccc(-n2nc(-c3cccs3)cc2NC(=O)N[C@H]2CCc3ccccc32)c1 [Example 415, 1-(1-(3-(2-amino-2-oxoethyl)phenyl)-3-(thiophen-2-yl)-1H-pyrazol-5-yl)-3-((S)-2,3-dihydro-1H-inden-1-yl)urea] | – | – | 17 nM
21 | COC[C@H]1CCCN1C(=O)Cc1ccc(-n2nc(C(C)(C)C)cc2NC(=O)Nc2cccc(Cl)c2Cl)cc1 [Example 484, (R)-1-(3-t-butyl-1-(4-(2-(2-(methoxymethyl)pyrrolidin-1-yl)-2-oxoethyl)phenyl)-1H-pyrazol-5-yl)-3-(2,3-dichlorophenyl)urea] | – | – | 13 nM
22 | NC(=O)Cc1cccc(-n2nc(-c3nccs3)cc2NC(=O)Nc2cccc(Cl)c2Cl)c1 [Example 410, 1-(1-(3-(2-amino-2-oxoethyl)phenyl)-3-(thiazol-2-yl)-1H-pyrazol-5-yl)-3-(2,3-dichlorophenyl)urea] | – | – | 88 nM
23 | NC(=O)Cc1cccc(-n2nc(-c3ccccc3F)cc2NC(=O)Nc2cccc3ccccc23)c1 [Example 423, 1-(1-(3-(2-amino-2-oxoethyl)phenyl)-3-(2-fluorophenyl)-1H-pyrazol-5-yl)-3-(naphthalen-1-yl)urea] | – | – | 21 nM
24 | CC(C)(C)c1cc(NC(=O)Nc2cc(F)c(F)c(F)c2)n(-c2cc(CC(=O)NCC(O)CO)c3ccccc3c2)n1 (stereo not shown) [Example 98] | 34 nM | – | –
25 | CC(C)(C)c1cc(NC(=O)Nc2cccc(C#N)c2)n(-c2ccc3c(c2)CCNCC3)n1 [Example 167, 1-(3-t-butyl-1-(2,3,4,5-tetrahydro-1H-benzo[d]azepin-7-yl)-1H-pyrazol-5-yl)-3-(3-cyanophenyl)urea] | 310 nM | – | –
26 | CC(C)(C)c1ncc(NC(=O)Nc2cccc(Cl)c2Cl)c(-c2ccccc2)n1 [Example 279, 1-(2-t-butyl-4-phenylpyrimidin-5-yl)-3-(2,3-dichlorophenyl)urea] | – | 697 nM | 1050 nM
27 | CC(C)(C)c1cc(NC(=O)NC2CCCCC2)n(-c2cc(CC(N)=O)c3ccccc3c2)n1 [Example 91, 1-(1-(4-(2-amino-2-oxoethyl)naphthalen-2-yl)-3-t-butyl-1H-pyrazol-5-yl)-3-cyclohexylurea] | – | 20 nM | 350 nM
28 | O=C(Cc1cccc(-n2nc(-c3ccc(F)cc3)cc2NC(=O)Nc2cccc(Cl)c2Cl)c1)NCCO [Example 455, 1-(2,3-dichlorophenyl)-3-(3-(4-fluorophenyl)-1-(3-(2-(2-hydroxyethylamino)-2-oxoethyl)phenyl)-1H-pyrazol-5-yl)urea] | – | – | 82 nM
29 | COc1cccc(NC(=O)Nc2cc(C(C)(C)C)nn2-c2cccc(C#N)c2)c1 [Example 10] | 4300 nM | – | –
30 | O=C(O)Cc1cccc(-n2nc(-c3ccccc3F)cc2NC(=O)Nc2ccc(F)c(F)c2F)c1 [Example 362, 2-(3-(3-(2-fluorophenyl)-5-(3-(2,3,4-trifluorophenyl)-ureido)-1H-pyrazol-1-yl)phenyl)acetic acid] | – | – | 38 nM
31 | NC(=O)Cc1ccc(-n2nc(-c3cccc(F)c3)cc2NC(=O)Nc2cccc(Cl)c2Cl)cc1 [Example 480, 1-(1-(4-(2-amino-2-oxoethyl)phenyl)-3-(3-fluorophenyl)-1H-pyrazol-5-yl)-3-(2,3-dichlorophenyl)urea] | – | – | 73 nM
32 | CC(C)(C)c1cc(NC(=O)Nc2cccc(C(F)(F)F)c2)n(-c2cccc(C#N)c2)n1 [Example 11] | 5100 nM | – | –
33 | CC(C)(C)c1cc(NC(=O)Nc2cccc(Cl)c2Cl)n(-c2cccc(CC(=O)N3CCC[C@@H]3CO)c2)n1 [Example 407, 1-(3-t-butyl-1-(3-(2-((R)-2-(hydroxymethyl)pyrrolidin-1-yl)-2-oxoethyl)phenyl)-1H-pyrazol-5-yl)-3-(2,3-dichlorophenyl)urea] | – | – | 45 nM
